We go through four molecules from patent US20260256755A1, “COMBINATIONS FOR TREATMENT OF PARKINSON'S DISEASE AND OTHER PRIMARY AND SECONDARY PARKINSONIAN DISORDERS” (Kenai Therapeutics, Inc., priority 2023, published 2026).

One assay concerns microglia. The following applies: cited from earlier work.
The next assay relates to DA neural cells. As to the kind of experiment: Example 2: stress test, medium change followed by serum deprivation. In kind it is cell-based. The note with it: concentrations of 0.1 and 0.01 μM. An excerpt:
DA neural cell survival will be measured by either counting surviving attached DA neural cells or by colorimetric determination after applying an electrocoupling reagent that responds to chemical reactions in normal cellular respiration.

In a further assay the test system is cerebral cortex. As to the kind of experiment: Example 5: cortical lesion study, neuroprotection and inflammation. The class given is in vivo, long evans hooded rats. The following applies: injected with DA neural cells.
A further assay has as its system PGC-1a. As to the kind of experiment: upregulation of PGC-1a, mode of action relevant to dopaminergic cells. The note with it: for ability to upregulate PGC-1a: target relevant to dopaminergic cells and Parkinson's disease. In kind it is cell-based.

Text for cerebral cortex: Animals, Surgery, and histology: lesion studies will be conducted on 15 long evans hooded rats weighing 225-275 g. Twelve of these rats will be deeply anesthetized 10 with ketamine/xylazine and placed in a sterotaxic holder. A 4×2 mm (rostrocaudal×mediolateral) skull opening will be made on the right side starting just behind the coronal suture and centered at a mediolateral position of +2.5 mm relative to bregma. A dissecting knife will be penetrated through the dura and cortex in the center of this skull opening to a depth of 1 mm. The skull defect will be filled with bone wax, the skin sutured closed, and the animal placed on a heating pad. Twenty minutes later, 0.4 cc of solution containing 100 μg of 20 peptide (^~0.4 mg/kg, 6 rats) or DMEM vehicle (6 rats) will be injected under the skin of the shoulder near the midline. The rats will be perfused 4 days later and their brains processed for histology and immunohistochemistry as in previous studies. Three rats will be sacrificed without surgery or treatment. […] The density of ED-1+ ameboid microglia in the perilesion parencyma wound will be calculated after experimentally blinded counting of 4 fields (dorsal and ventral margins of the wound) in 2 sections through the lesion.

In the case of `FC(F)(F)c1ccc(CNc2ccc(Cc3c[nH]c4ncc(Cl)cc34)cn2)cn1` [Pexidartinib], the “depletion of the microglia population” value in the assay with microglia (healthy brain) is reported as “fast depletion of the microglia population”. The survival of microglia entry with microglia (in vivo) is “inhibit the survival of microglia”. Also, the “rescue of DA neural cells” value in the assay on DA neural cells is given as “rescue DA neural cells”. Also, in the assay with cerebral cortex, the “accumulation of inflammatory cells in the parenchyma” value is listed as “inhibited” and the “disruption of the cerebral cortex” value is given as “inhibited”.

Consider `CC(C)(Oc1ccc(CCNC(=O)c2ccc(Cl)cc2)cc1)C(=O)O` [benzafibrate], for which the “ability to upregulate PGC-1a” value in the assay with PGC-1a is “unable to upregulate PGC-1a”.

On to `CC(C)OC(=O)C(C)(C)Oc1ccc(C(=O)c2ccc(Cl)cc2)cc1` [fenofibrate], for which the “activity (active or not)” value in the assay on PGC-1a (mode of action relevant to dopaminergic cells and Parkinson's disease) is “active”.

For `CCOC(=O)C(C)(C)Oc1ccc(Cl)cc1` [clorofibrate], the “ability to upregulate PGC-1a” value in the assay on PGC-1a was “unable to upregulate PGC-1a”.
